Results: US20220267260A1, “COMPOUNDS CONTAINING A SULFONIC GROUP AS KAT INHIBITORS” (Epizyme, Inc., priority 2016, published 2022)

Tests used:
KAT6A = target: T1, KAT6A (Homo sapiens, UniProt Q92794); assay: KAT6A enzyme inhibition assay (SAMDI mass spectrometry); format: biochemical; conditions: His-TEV-KAT6A 501-784 enzyme construct
T1 construct: His-TEV tag (N, cleaved yes); made in house

KAT5 = target: T2, KAT5 (Homo sapiens, UniProt Q92993); assay: KAT5 enzyme inhibition assay (SAMDI mass spectrometry); format: biochemical; conditions: His-TEV-FL KAT5-Flag enzyme construct
T2 construct: His-TEV tag (N, cleaved yes); made in house
T2 sequence (Q92993 with tags, fused parts or gaps): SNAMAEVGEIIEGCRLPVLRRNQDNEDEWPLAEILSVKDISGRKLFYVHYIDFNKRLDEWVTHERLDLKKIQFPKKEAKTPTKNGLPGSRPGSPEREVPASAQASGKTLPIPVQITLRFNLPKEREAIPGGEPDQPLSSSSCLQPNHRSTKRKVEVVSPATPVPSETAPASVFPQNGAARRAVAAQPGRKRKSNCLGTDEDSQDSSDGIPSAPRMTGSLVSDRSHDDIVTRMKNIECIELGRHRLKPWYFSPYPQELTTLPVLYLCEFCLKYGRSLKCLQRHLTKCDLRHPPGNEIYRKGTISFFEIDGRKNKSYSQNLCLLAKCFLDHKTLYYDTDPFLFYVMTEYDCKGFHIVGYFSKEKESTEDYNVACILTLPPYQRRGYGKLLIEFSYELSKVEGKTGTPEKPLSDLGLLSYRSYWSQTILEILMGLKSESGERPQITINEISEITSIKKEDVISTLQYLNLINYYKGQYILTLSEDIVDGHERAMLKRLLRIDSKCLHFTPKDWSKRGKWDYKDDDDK

T1 sequence (Q92794 with tags, fused parts or gaps): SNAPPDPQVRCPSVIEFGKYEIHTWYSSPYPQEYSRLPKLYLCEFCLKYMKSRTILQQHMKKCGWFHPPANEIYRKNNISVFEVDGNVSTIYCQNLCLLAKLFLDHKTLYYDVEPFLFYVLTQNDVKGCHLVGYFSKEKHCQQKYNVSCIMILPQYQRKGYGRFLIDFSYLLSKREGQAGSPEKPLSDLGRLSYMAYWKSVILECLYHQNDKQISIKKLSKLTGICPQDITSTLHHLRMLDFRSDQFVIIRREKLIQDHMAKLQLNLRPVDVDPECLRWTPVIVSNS

| SMILES | IC50 (KAT6A) [µM] | IC50 (KAT5) [µM] |
| --- | --- | --- |
| CCC(=O)N1CCCC(CS(=O)(=O)NNC(=O)c2cc(-c3cccc(F)c3)cc(C)c2F)C1 (stereo not drawn) [Compound I-372] | ≤ 10 | ≤ 10 |
| COc1cccc(S(=O)(=O)NNC(=O)c2cc(-c3ccccc3)cc(C)c2F)c1 [Compound I-232] | ≤ 10 | ≤ 10 |
| Cc1c(-c2ccccc2)ccc(F)c1C(=O)NNS(=O)(=O)C1CCCCC1 [Compound I-117] | 50 to 100 | > 100 |
| O=C(NNS(=O)(=O)C1CCN(C(=O)C2CCC2)CC1)c1cc(Cl)cc(Cl)c1F [Compound I-436] | > 100 | 50 to 100 |
| Cn1cc(-c2ccc(F)c(Cl)c2)nc1C(=O)NNS(=O)(=O)CC1CCOCC1 [Compound I-478] | > 100 | > 100 |
| O=C(NNS(=O)(=O)CC1CCOCC1)c1cc(CO)cc(Cl)c1F [Compound I-466] | 10 to 50 | 10 to 50 |
| O=C(NNS(=O)(=O)C1CCOCC1)c1cc(Cl)cc(Cl)c1F [Compound I-414] | > 100 | > 100 |
| O=C(NNS(=O)(=O)c1ccccc1)c1c(F)ccc(-c2ccccc2)c1F [Compound I-10] | > 100 | > 100 |
| CC(=O)N1CC(S(=O)(=O)NNC(=O)c2cc(-c3ccccc3)cc(C)c2F)C1 [Compound I-40] | 10 to 50 | 50 to 100 |
| Cc1cc(-c2ccccc2)cc(C(=O)NNS(=O)(=O)c2cccc(CO)c2)c1F [Compound I-261] | ≤ 10 | ≤ 10 |
| COCCNC(=O)c1cccc(-c2cc(C)c(F)c(C(=O)NNS(=O)(=O)C3CCCCC3)c2)c1 [Compound I-445] | > 100 | 10 to 50 |
| Nc1ccc(-c2cc(Cl)c(F)c(C(=O)NNS(=O)(=O)C3CCCCC3)c2)cc1 [Compound I-463] | > 100 | ≤ 10 |
| Cc1c(-c2ccccc2)ccc(F)c1C(=O)NNS(=O)(=O)C1CCC1 [Compound I-243] | > 100 | > 100 |
| Cc1cc(-c2ccccc2)cc(C(=O)NNCC(F)(F)F)c1F [Compound I-476] | > 100 | > 100 |
| O=C(NNS(=O)(=O)c1ccccc1)c1c(F)cccc1F [Compound I-166] | 10 to 50 | > 100 |
| COc1ccccc1S(=O)(=O)NNC(=O)c1ccccc1F [Compound I-174] | > 100 | > 100 |
| COCCOc1cccc(-c2cc(C)c(F)c(C(=O)NNS(=O)(=O)C3CCCCC3)c2)c1 [Compound I-272] | 50 to 100 | 10 to 50 |
| Cc1cc(-c2cccc(F)c2)cc(C(=O)NNS(=O)(=O)CC2CCCN(C(=O)CCN(C)C(=O)OC(C)(C)C)C2)c1F (stereo not drawn) [Compound I-331] | ≤ 10 | ≤ 10 |
| COc1cc(-c2ccccc2)cc(C(=O)NNS(=O)(=O)C2CCCCC2)c1F [Compound I-315] | 10 to 50 | 10 to 50 |
| Cc1cc(-c2ccncc2)cc(C(=O)NNS(=O)(=O)c2ccccc2)c1F [Compound I-202] | 10 to 50 | > 100 |
| O=C(NNS(=O)(=O)c1ccccc1)c1cc(-c2ccccc2)cc2[nH]cnc12 [Compound I-53] | 10 to 50 | 10 to 50 |
| O=C(NNS(=O)(=O)c1ccccc1)c1cccc2ccccc12 [Compound I-180] | > 100 | > 100 |
| CC1CCCC(C)N1C(=O)NNS(=O)(=O)c1ccccc1 (stereo not drawn) [Compound I-15] | > 100 | > 100 |
| Cc1cc(C(=O)NNS(=O)(=O)c2ccccc2)cc(-c2ccccc2)c1F [Compound I-126] | ≤ 10 | 50 to 100 |

| SMILES | IC50 (KAT6A) [µM] | IC50 (KAT5) [µM] |
| --- | --- | --- |
| Cc1cc(-c2ccccc2)cc(C(=O)NNS(=O)(=O)C2CCC2)c1F [Compound I-7] | 10 to 50 | 10 to 50 |
| Cc1cc(-c2ccccc2)cc(C(=O)NNS(=O)(=O)C2CC3CCC(C2)N3C(=O)OC(C)(C)C)c1F (stereo not drawn) [Compound I-137] | 10 to 50 | 10 to 50 |
| Cc1cc(-c2ccccc2)cc(C(=O)NNS(=O)(=O)c2cccc(C(=O)N(C)C)c2)c1F [Compound I-255] | ≤ 10 | ≤ 10 |
| Cc1cc(-c2ccccc2)cc(C(=O)NNS(=O)(=O)C2CCN(Cc3ccccc3Cl)C2)c1F (stereo not drawn) [Compound I-29] | ≤ 10 | ≤ 10 |
| Cc1cc(-c2ccccc2)cc(C(=O)NNS(=O)(=O)c2cccc(OCc3ccccc3)c2)c1F [Compound I-210] | ≤ 10 | ≤ 10 |
| O=C(NNS(=O)(=O)c1cccc(Cl)c1)c1c(F)ccc(-c2ccccc2)c1F [Compound I-161] | ≤ 10 | 10 to 50 |
| Cc1cc(-c2ccccc2)cc(C(=O)NNS(=O)(=O)C2CN(Cc3ccc(Cl)cc3)C2)c1F [Compound I-63] | > 100 | > 100 |
| Cc1cccc(-c2cc(C)c(F)c(C(=O)NNS(=O)(=O)C3CCCCC3)c2)c1 [Compound I-301] | 50 to 100 | 10 to 50 |
| Cc1cc(C(C)(C)C)cc(C(=O)NNS(=O)(=O)c2ccccc2)c1O [Compound I-462] | > 100 | > 100 |
| Cc1cc(-c2cccc(F)c2)cc(C(=O)NNS(=O)(=O)CC2CCN(C(=O)OC(C)(C)C)CC2)c1F [Compound I-359] | ≤ 10 | ≤ 10 |
| CNCCC(=O)N1CCC(CS(=O)(=O)NNC(=O)c2cc(-c3cccc(F)c3)cc(C)c2F)CC1 [Compound I-389] | 10 to 50 | 10 to 50 |
| CC(=O)N1CCCC(S(=O)(=O)NNC(=O)c2cc(-c3ccccc3)cc(C)c2F)C1 (stereo not drawn) [Compound I-102] | 10 to 50 | 10 to 50 |
| COc1cccc(-c2cc(C)c(F)c(C(=O)NNS(=O)(=O)c3ccccc3)c2)c1 [Compound I-350] | ≤ 10 | > 100 |
| Cc1cc(-c2cccc(F)c2)cc(C(=O)NNS(=O)(=O)CC2CNCCO2)c1F (stereo not drawn) [Compound I-428] | ≤ 10 | 10 to 50 |
| O=C(NNS(=O)(=O)c1ccccc1)c1ccccc1F [Compound I-165] | 10 to 50 | > 100 |
| Cc1cc(-c2ccccc2)cc(C(=O)N2CCC(S(=O)(=O)c3ccccc3)C2)c1F (stereo not drawn) [Compound I-73] | > 100 | > 100 |
| Cc1cc(-c2ccccc2)cc(C(=O)NNS(=O)(=O)CC2CCN(C(=O)OC(C)(C)C)C2)c1F (stereo not drawn) [Compound I-206] | ≤ 10 | ≤ 10 |
| CC(=O)N1CCC(S(=O)(=O)NNC(=O)c2cc(-c3ccccc3)cc(C)c2F)CC1 [Compound I-94] | 10 to 50 | 10 to 50 |
| O=C(NC1CCC1)c1cc(Cl)c(F)c(C(=O)NNS(=O)(=O)C2CCOCC2)c1 [Compound I-488] | > 100 | > 100 |
| CCc1cccc(S(=O)(=O)NNC(=O)c2cc(-c3ccccc3)cc(C)c2F)c1 [Compound I-221] | ≤ 10 | 10 to 50 |
| Cc1c(C(=O)NNS(=O)(=O)C2CCCCC2)cccc1-c1ccccc1 [Compound I-363] | > 100 | > 100 |
| COCCNC(=O)c1cccc(-c2cc(C)c(F)c(C(=O)NNS(=O)(=O)c3ccccc3)c2)c1 [Compound I-494] | ≤ 10 | 10 to 50 |
| COCC(=O)N1CC(CS(=O)(=O)NNC(=O)c2cc(-c3ccccc3)cc(C)c2F)C1 [Compound I-310] | ≤ 10 | 10 to 50 |
| Cc1cc(-c2ccccc2)cc(C(=O)NNS(=O)(=O)C2CN(CCO)C2)c1F [Compound I-42] | 10 to 50 | 50 to 100 |
